Data as given in patent US20260007651A1, “Effect of YEL002 on Conditions and Diseases” (RadMit, Inc., priority 2022, published 2026).

How the values were obtained:
[1] = Patient testimonial: veins and blood; conditions: human, in vivo
Description: His blood is thinner, since proinflammatory factors make platelets sticky and cause blood clots. Thus, it prevents or treats blood clots.

human keratinocytes = assay: Proteomics study of induced proteins; assay type: cell-based
Description: In terms of mechanism of action in a proteomics study, the chemical was capable of inducing 244 different proteins in human keratinocytes, which comprised anti-inflammatory proteins, a number of DNA repair proteins, and even some neuroprotective proteins. It is known that turtles at the Galapagos Islands live 150 or more years without cancer and have multiple copies of DNA repair genes and anti-inflammatory genes. The compound boosts the expression of these genes in mammals. Since it induces DNA repair and is anti-inflammatory, it may be possible to prevent and cure many diseases and extend the life. In addition, patients are using the compound to try to treat Alzheimer's, multiple sclerosis, alopecia, diabetes, to prevent prostate cancer, to increase testosterone level, etc. People report feeling more energetic, less tired, and less combative and become nicer.

[2] = tested on: mice irradiated with an LD100; assay: Radiation mitigation: survival of mice irradiated with an LD100; assay type: in vivo
Procedure: There were 10 primary hits and 6 confirmed hits and 2 of them were used in mice. Mice were irradiated with an LD100 after which 100% of the mice died after 10 to 15 days. When the researchers injected YEL002 IP into the irradiated mice 24 hours after radiation and another four doses in 24 hours intervals 100% of the mice, so all mice which would otherwise have died survived which was a highly significant difference. Many lived a normal life span of more than 2 years which is interesting since other labs which isolated other compounds their mice died of late radiation effects much earlier.

[3] = User study: periodontics or receding gums; parameters: species or system human; conditions: in vivo
Description: In a user study, the patient's periodontics or receding gums were healed and no longer needed to floss teeth as much, since the teeth are now perfectly aligned and close together without a space in between.

[4] = Eye sight, eye exam in an ophthalmology office; assay type: in vivo, human
Procedure: The patient also observed no longer needing eyeglasses after 55 years of wearing them, and after 4 weeks with the drug, the subject can see much better than anybody their age. According to the patient, the compound fixed 2 diopters and 1 astigmatism of eye sight deficiency in only 4 weeks. An eye exam was conducted in an ophthalmology office. […] In every subject using the chemical the eye background is completely green, because YEL002 benefits the retina and optic nerve.

ATM-deficient mice = assay: Lifespan of ATM-deficient mice injected weekly; assay type: in vivo; conditions: ATM-deficient mice injected every week during most of their lifespans
[5] = Patient testimonial: heavy smoker, smoker's leg and hair loss; assay type: in vivo, human; conditions: one week after treatment
Description: According to another patient testimonial, one subject was a heavy smoker and they had all kinds of inflammation problems including smoker's leg which were oozing lymph liquid and could not heal for many years.

[6] = Patient testimonial: subject on chemotherapy; assay type: in vivo, human; conditions: one week on YEL002, subject on chemotherapy
Description: They are extremely happy and all their doctors are happy too and told them that they need to continue their experimental therapy.

[7] = tested on: three different cancer cell lines; assay: Radiation killing of cancer cell lines; assay type: cell-based
Solubility / appearance = assay type: physicochemical
Procedure: The compound takes the appearance of an off-white powder and is fat soluble. One takes a quarter teaspoon or about 0.5 g dissolved in a couple of teaspoons of oil. In an exemplary embodiment, it is dissolved in grape seed oil and taken twice a day, once in the morning and once in the evening. It is easy to use and has almost no taste.

[8] = Patient testimonial: subject post-chemotherapy, coughing and wheezing; assay type: in vivo, human; conditions: one hour after treatment
Description: According to another patient testimonial, one subject post-chemotherapy had coughing and wheezing symptoms and went downhill very fast and their child was worried that they were dying.

[9] = Patient testimonial: elevated levels of liver damage; assay type: in vivo, human; conditions: after two days of treatment; twice elevated for 25 years before
Side effects observed = conditions: in vivo
Description: It is also observed that three different cancer cell lines were not protected from radiation killing by YEL002, which indicates a use in radiation oncology or chemotherapy where the tumor can still be killed by the radiation, or chemotherapy but YEL002 protects the rest of the body from radiation or chemotherapy damage, and inhibits secondary carcinogenesis.

[10] = Patient testimonial: nose spray in oil, allergic attacks; assay type: in vivo, human; conditions: dissolved in oil, nose spray 2-4 times a day
Description: According to another patient testimonial, one subject dissolved YEL002 in oil and used that oil to spray their nose 2-4 times a day.

lymphoma = assay: Lymphoma incidence in mice (National Institute of Health experiment); assay type: in vivo; conditions: radiation exposure caused 90% to develop lymphoma without treatment
Procedure: This was observed after treating mice right after birth, if humans are treated later in life it is possible that only 10 or 5 years are added and probably more for DNA repair deficient diseases like ataxia telangiectasia (ATM) which is still very substantial.

[11] = Case study, eight weeks of use (coughing, diarrhea); assay type: in vivo, human; conditions: used for eight weeks
Description: It has also beneficial effects on the skin and one needs less of a cosmetic cream containing the same compound.

## COc1ccc2cc(-c3nc4ccc(C)cn4c3NCc3ccco3)c(=O)[nH]c2c1 [YEL002]
[1]
  blood: thinner
  varicose and spider veins: fixes varicose and spider veins
Human keratinocytes; human keratinocytes, anti-inflammatory, DNA repair and neuroprotective proteins
  number of different proteins induced: 244
Human keratinocytes; proteomics
  number of neuroprotective functions induced: 9
[2]; LD100 irradiation, IP 24 hours after radiation and another four doses in 24 hours intervals, without treatment 100% died after 10 to 15 days
  mice survived: 100%
[2]; many of the surviving mice
  life span of surviving irradiated mice: more than 2 years
[3]
  periodontics or receding gums: healed
[4]; another subject who had 6 diopters
  need for eyeglasses: does not require eyeglasses any longer
[4]; in 4 weeks
  eye sight deficiency fixed, astigmatism: 1 astigmatism
  eye sight deficiency fixed, diopters: 2 diopters
ATM-deficient mice
  lived longer than without injections: 33%
[5]
  hair loss: completely stopped
  smoker's leg condition: completely healed
[6]
  body weight gained: 2 kg
  vomiting: completely stopped
[7]
  protection of cancer cell lines from radiation killing: not protected
Solubility / appearance
  solubility: fat soluble
[8]
  coughing and wheezing symptoms: completely alleviated
[9]
  levels of liver damage: normal and below the cutoff
Side effects observed
  side effects: no side effects
[10]
  allergic attacks such as sneezing and runny nose: completely prevented all allergic attacks
lymphoma
  lymphoma incidence after radiation exposure: 40%
[11]
  symptoms of coughing and diarrhea: reduced symptoms of coughing and diarrhea
